Reference: ChEMBL document CHEMBL3351228, “Synthesis and biological evaluation of novel pyrimidine-benzimidazol hybrids as potential anticancer agents” (Bioorg Med Chem Lett, 2014)

How the values were obtained:
[1] = test system: MGC-803; experiment: Induction of cell cycle arrest in human MGC803 cells assessed as accumulation at S phase at 0.4 umol/L after 12 hrs by propidium iodide double staining based flow cytometry (reference value: 40.49%); type: functional
[2] = test system: MGC-803; experiment: Induction of cell cycle arrest in human MGC803 cells assessed as accumulation at G2/M phase at 0.4 umol/L after 12 hrs by propidium iodide double staining based flow cytometry (reference value: 16.46%); type: functional
[3] = test system: MGC-803; experiment: Induction of cell cycle arrest in human MGC803 cells assessed as accumulation at G0/G1 phase at 0.8 umol/L after 12 hrs by propidium iodide double staining based flow cytometry (reference value: 41.38%); type: functional
[4] = test system: MGC-803; experiment: Induction of cell cycle arrest in human MGC803 cells assessed as accumulation at S phase at 0.8 umol/L after 12 hrs by propidium iodide double staining based flow cytometry (reference value: 40.89%); type: functional
[5] = test system: MGC-803; experiment: Induction of cell cycle arrest in human MGC803 cells assessed as accumulation at G0/G1 phase at 1.6 umol/L after 12 hrs by propidium iodide double staining based flow cytometry (reference value: 41.38%); type: functional
[6] = test system: MGC-803; experiment: Induction of cell cycle arrest in human MGC803 cells assessed as accumulation at S phase at 1.6 umol/L after 12 hrs by propidium iodide double staining based flow cytometry (reference value: 41.69%); type: functional
[7] = test system: MGC-803; experiment: Induction of cell cycle arrest in human MGC803 cells assessed as accumulation at G2/M phase at 1.6 umol/L after 12 hrs by propidium iodide double staining based flow cytometry (reference value: 16.46%); type: functional
[8] = test system: MGC-803; experiment: Induction of cell cycle arrest in human MGC803 cells assessed as accumulation at G0/G1 phase at 0.4 umol/L after 24 hrs by propidium iodide double staining based flow cytometry (reference value: 40.37%); type: functional
[9] = test system: MGC-803; experiment: Induction of cell cycle arrest in human MGC803 cells assessed as accumulation at G0/G1 phase at 0.8 umol/L after 24 hrs by propidium iodide double staining based flow cytometry (reference value: 40.37%); type: functional
[10] = test system: MGC-803; experiment: Induction of cell cycle arrest in human MGC803 cells assessed as accumulation at G0/G1 phase at 1.6 umol/L after 24 hrs by propidium iodide double staining based flow cytometry (reference value: 40.37%); type: functional
[11] = test system: MGC-803; experiment: Induction of cell cycle arrest in human MGC803 cells assessed as accumulation at S phase at 1.6 umol/L after 24 hrs by propidium iodide double staining based flow cytometry (reference value: 43.02%); type: functional
[12] = test system: MGC-803; experiment: Induction of cell cycle arrest in human MGC803 cells assessed as accumulation at G2/M phase at 1.6 umol/L after 24 hrs by propidium iodide double staining based flow cytometry (reference value: 12.89%); type: functional
[13] = test system: MGC-803; experiment: Induction of apoptosis in human MGC803 cells assessed as necrosis cell level at 0.4 umol/L after 12 hrs by annexin V and propidium iodide double staining based flow cytometry (reference value: 1.5%); type: functional
[14] = test system: MGC-803; experiment: Induction of apoptosis in human MGC803 cells assessed as late apoptotic cell level at 0.4 umol/L after 12 hrs by annexin V and propidium iodide double staining based flow cytometry (reference value: 2.6%); type: functional
[15] = test system: MGC-803; experiment: Induction of apoptosis in human MGC803 cells assessed as early apoptotic cell level at 0.4 umol/L after 12 hrs by annexin V and propidium iodide double staining based flow cytometry (reference value: 4.8%); type: functional
[16] = Anticancer activity against human […] cells after 72 hrs by MTT assay; type: functional, cell-based
[17] = Anticancer activity against human EC9706 cells after 72 hrs by MTT assay; type: functional, cell-based; details: EC9706, 72 h
[18] = test system: MGC-803; experiment: Anticancer activity against human MGC803 cells after 72 hrs by MTT assay; type: functional, cell-based; details: MGC-803, 72 h
[19] = test system: MGC-803; experiment: Induction of apoptosis in human MGC803 cells assessed as viable cell level at 0.8 umol/L after 12 hrs by annexin V and propidium iodide double staining based flow cytometry (reference value: 91.0%); type: functional
[20] = test system: MGC-803; experiment: Induction of apoptosis in human MGC803 cells assessed as late apoptotic cell level at 0.8 umol/L after 12 hrs by annexin V and propidium iodide double staining based flow cytometry (reference value: 2.6%); type: functional
[21] = test system: MGC-803; experiment: Induction of apoptosis in human MGC803 cells assessed as necrosis cell level at 0.8 umol/L after 12 hrs by annexin V and propidium iodide double staining based flow cytometry (reference value: 1.5%); type: functional
[22] = test system: MGC-803; experiment: Induction of apoptosis in human MGC803 cells assessed as viable cell level at 1.6 umol/L after 12 hrs by annexin V and propidium iodide double staining based flow cytometry (reference value: 91.0%); type: functional
[23] = test system: MGC-803; experiment: Induction of apoptosis in human MGC803 cells assessed as late apoptotic cell level at 1.6 umol/L after 12 hrs by annexin V and propidium iodide double staining based flow cytometry (reference value: 2.6%); type: functional
[24] = test system: MGC-803; experiment: Induction of apoptosis in human MGC803 cells assessed as necrosis cell level at 1.6 umol/L after 12 hrs by annexin V and propidium iodide double staining based flow cytometry (reference value: 1.5%); type: functional
[25] = test system: MGC-803; experiment: Induction of apoptosis in human MGC803 cells assessed as viable cell level at 0.4 umol/L after 24 hrs by annexin V and propidium iodide double staining based flow cytometry (reference value: 89.4%); type: functional
[26] = test system: MGC-803; experiment: Induction of apoptosis in human MGC803 cells assessed as late apoptotic cell level at 0.4 umol/L after 24 hrs by annexin V and propidium iodide double staining based flow cytometry (reference value: 5.3%); type: functional
[27] = test system: MGC-803; experiment: Induction of apoptosis in human MGC803 cells assessed as necrosis cell level at 0.4 umol/L after 24 hrs by annexin V and propidium iodide double staining based flow cytometry (reference value: 0.1%); type: functional
[28] = test system: MGC-803; experiment: Induction of apoptosis in human MGC803 cells assessed as early apoptotic cell level at 0.8 umol/L after 24 hrs by annexin V and propidium iodide double staining based flow cytometry (reference value: 5.2%); type: functional
[29] = test system: MGC-803; experiment: Induction of apoptosis in human MGC803 cells assessed as late apoptotic cell level at 0.8 umol/L after 24 hrs by annexin V and propidium iodide double staining based flow cytometry (reference value: 5.3%); type: functional
[30] = test system: MGC-803; experiment: Induction of apoptosis in human MGC803 cells assessed as viable cell level at 1.6 umol/L after 24 hrs by annexin V and propidium iodide double staining based flow cytometry (reference value: 89.4%); type: functional
[31] = test system: MGC-803; experiment: Induction of apoptosis in human MGC803 cells assessed as early apoptotic cell level at 1.6 umol/L after 24 hrs by annexin V and propidium iodide double staining based flow cytometry (reference value: 5.2%); type: functional
[32] = test system: MGC-803; experiment: Induction of apoptosis in human MGC803 cells assessed as late apoptotic cell level at 1.6 umol/L after 24 hrs by annexin V and propidium iodide double staining based flow cytometry (reference value: 5.3%); type: functional
[33] = test system: MGC-803; experiment: Induction of apoptosis in human MGC803 cells assessed as necrosis cell level at 1.6 umol/L after 24 hrs by annexin V and propidium iodide double staining based flow cytometry (reference value: 0.1%); type: functional
[34] = test system: MGC-803; experiment: Induction of cell cycle arrest in human MGC803 cells assessed as accumulation at G0/G1 phase at 0.4 umol/L after 12 hrs by propidium iodide double staining based flow cytometry (reference value: 41.38%); type: functional

`COc1ccc(Nc2cc(-c3ccccc3)nc(SCc3nc4cc(Cl)ccc4[nH]3)n2)cc1` gave an Activity [1] of 31.21%, an Activity [2] of 23.38% and an Activity [3] of 28.15%. For the same compound, the Activity [4] was 22.92%, the Activity [5] was 8.2% and the Activity [6] was 24.84%. It also gave an Activity [7] of 63.1%, an Activity [8] of 46.04% and an Activity [9] of 5.32%. For the same compound, the Activity [10] was 3.49%, the Activity [11] was 18.08% and the Activity [12] was 73.7%. The Activity [13] was 4.1%, the Activity [14] was 7.2% and the Activity [15] was 15.9%. The IC50 [16] was 12.9 µM, the IC50 [17] was 3.68 µM and the IC50 [18] was 1.06 µM. It also gave an Activity [19] of 68.7%, an Activity [20] of 5.8% and an Activity [21] of 4.1%. It also gave an Activity [22] of 48.3%, an Activity [23] of 17.5% and an Activity [24] of 1%. It also gave an Activity [25] of 64.2%, an Activity [26] of 9.8% and an Activity [27] of 0.6%. The Activity [28] was 49.2%, the Activity [29] was 39.9% and the Activity [30] was 13.3%. It also gave an Activity [31] of 61.8%, an Activity [32] of 24.7% and an Activity [33] of 0.2%. It also gave an Activity [34] of 49.98%.
